In patent publication US20160024249A1, “Temperature-Responsive Polymer Compositions and Methods of Use” (Vanderbilt University, priority 2014, published 2016):
No end group written: not given here.

Legend:
[1] = test system: mouse aortic endothelial cells (mAECs); test: Tubulogenesis on growth factor reduced Matrigel; type: cell-based; details: mAECs on Matrigel for 6 h
Procedure: (§1) Cell Culture: RAW 264.7 macrophages (ATCC) were cultured in DMEM (Gibco) supplemented with 10% FBS and 1% penicillin/strepto-mycin. Mouse aortic endothelial cells (mAECs) were a generous gift from Dr. Ambra Pozzi at Vanderbilt University Medical Center. mAECs were cultured in EGM-2 Basal Media supplemented with BulletKit (Lonza, Allendale, N.J.) and 10 units/mLIFN-g (Sigma). RAW 264.7 mouse macrophage cells (Sigma) were cultured in DMEM with 10% FBS and 1% penicillin/streptomycin. For cell culture studies with peptides, 75 mg/mL of Ac-SDKP or C16 peptides was used. For inhibition studies, 5 mM of MMP-9 inhibitor-1 (CTK8G1150; AG-L-66085, Santa Cruz Biotechnology, Dallas, Tex.) or 5 mg/mL of LEAF Purified Mouse TNF-a antibody (BioLegend) was used.
Tubulogenesis: mAECs (3×10^5 cells/mL) were cultured on growth factor reduced Matrigel ([…], BD Biosciences) for 6 h before imaging for tube formation using a Nikon Eclipse Ti microscope (n=4 per treatment).

[2] = test system: mouse aortic endothelial cells (mAECs); test: MMP-9 activity by zymography; type: cell-based; details: 72 h, peptides 75 mg/mL, MMP-9 inhibitors 5 mM, TNF-a antibodies 5 mg/mL
Procedure: as §1
MMP-9 activity: After 72 h culture in serum-free media, culture media from mAECs or RAW 264.7 cells (3×10^5 cells/mL, with/without peptides or TNF-a/MMP-9 inhibitors) was collected, concentrated, and analyzed by zymography, as described previously. Concentrated protein samples were incubated with non-reducing buffer at a ratio of 1:1. […] total protein per lane were loaded onto a 7.5% polyacrylamide gel containing 0.1%(w/v) gelatin (Sigma). Gels were washed in dH2O containing 3.3% (v/v) Triton X-100, followed by […] incubation in reaction buffer at 37 C. After incubation, gels were placed in fixative (30% methanol, 10% acetic acid, and 60% dH2O) for 1 h before staining with 4 parts Coomassie brilliant blue R-250 (Sigma) and 1 part methanol for 12 h. Gels were destained in 25% methanol for 1 h. The gelatinolytic activity of pro-MMP-9 was determined by densitometry of the 97 KDa white band on a blue background using Image J(n=4 per treatment). MMP-9 expression was then normalized to the expression from the no inhibitor, no peptide treated group.

[3] = test system: mouse model of hind limb ischemia; test: Optical coherence tomography (Doppler and speckle-variance OCT) of blood vessels; type: in vivo, A/J mice; details: for vessel morphology (speckle-variance OCT volume scans of calf muscle): injectable microgels
Procedure: (§2) Mouse model of hind limb ischemia: Wild type A/J mice were used to develop a model of PAD as described previously, by ligating the femoral artery and vein at one ligation below the epigastric artery and a second ligation around the artery and vein at a distal location just proximal to the deep femoral branch. The femoral artery and vein were then cut between these two sutures. A 13% by weight solution of injectable polymers in H2O 2O was mixed with 75 mg Ac-SDKP, C16, or the combination of Ac-SDKP and C16 at 25° C. In order to control the hydrogel size considering the possibility that the hydrogel size may change peptide release and therefore inflammatory responses a single, 10 mL bulk injection or ten, 1 mL injections of peptide-loaded polymer were made into the thigh muscle adjacent to the femoral artery ligations. The surgical incision was then closed with non-degradable sutures. As controls, femoral artery ligation surgery was performed on animals without any microgels or peptide treatment or with peptide in PBS injections into the subcutaneous tissue adjacent to femoral artery ligations. The left hind limb (unoperated) was also used as a surgical control.
Optical coherence tomography: Doppler OCT and speckle-variance OCT were used to non-invasively image blood vessels in the ischemic gastrocnemius muscle of mice on days 1 and 13 after femoral artery ligation, as previously described. […] Doppler OCT cross-sectional scans (B-scans) were used to quantify blood flow changes over time in the hind limb, while volume intensity projections from speckle-variance OCT image volumes (C-scans) presented vessel morphology differences between groups. […] Six Doppler OCT B-scans (4 mm, 800 A-scans, Doppler number of 9) were performed per mouse at each time point and perfusion was quantified by calculating the ratio of the number of blood vessel pixels per scan over the total imaged area per scan (n=6 mice per time point).

[4] = test system: mouse model of hind limb ischemia; test: Fluorescence microangiography (vessel perfusion capacity); type: in vivo, A/J mice
Procedure: as §2
Angiogenesis and phagocytosis assays: Fourteen days after femoral artery ligation, mice were sacrificed and tissue and microgels were harvested for analysis. Immediately before sacrificing the mice, functional fluorescence micro-angiography was performed to visualize angiogenesis in and around peptide-loaded microgels, as described previously. As a result of fluorescence microangiography, only the functional capillaries with a perfusion capacity, including those around injected micro-gels, show red fluorescence in the mouse body. Excised tissue from the site of microgel injections was imaged using an Olympus FV100 confocal microscope. For quantification of vessel perfusion capacity, the red fluorescence intensity was quantified using Image J software (n=6 images per mouse, n=6 mice per treatment).

[5] = test system: mouse aortic endothelial cells (mAECs); test: Gene expression by quantitative RT-PCR; type: cell-based; details: 75 mg/mL peptide, 72 h
Procedure: as §1
Gene expression: mAECs or RAW 264.7 cells were seeded at a density of 3×10^5 cells/mL on TCPS with 75 mg/mL of Ac-SDKP, C16, or the combination of C16 and Ac-SDKP peptides. After 3 days, RNA was extracted from […] using Trizol reagent and RNA easy columns. After dissolving RNA in RNase-free water, the concentration and purity of isolated RNA was measured using TECAN plate reader Nanoquant (company info). At least […] of RNA was reverse transcribed using iScriptReverse transcription Supermix for RT-qPCR on a BioRad thermocycler (company info). 50 ng/well cDNA was then amplified using SYBR green Supermix and fluorescence signal was measured on a BioRAD real time PCR machine. TGF-b1 forward: […], reverse: […]. NF-kb forward: […]-CACAGA, reverse: […]. TIMP1 forward: […], reverse: […]-CACA. FGF-1 forward: […], reverse: […]. FGF-2: MMP-9: […]-CAATCC, reverse: […]. MMP-2 forward: […], reverse: […]. TNF-a: forward: […], reverse: AGA-[…]. VEGF forward: […]-CACCA, reverse: […]. GAPDH forward: […], reverse: […]. TIMP-2 forward: […], reverse: CACGCG-[…]. Expression was calculated using the […] and normalized to GAPDH expression (n=8).

RAW 264.7 macrophages [6] = test: MMP-9 activity by zymography; type: cell-based, mouse; details: RAW 264.7, 72 h, regardless of TNF-a inhibition
Procedure: as §1
MMP-9 activity: After 72 h culture in serum-free media, culture media from mAECs or RAW 264.7 cells (3×10^5 cells/mL, with/without peptides or TNF-a/MMP-9 inhibitors) was collected, concentrated, and analyzed by zymography, as described previously. Concentrated protein samples were incubated with non-reducing buffer at a ratio of 1:1. […] total protein per lane were loaded onto a 7.5% polyacrylamide gel containing 0.1%(w/v) gelatin (Sigma). […] The gelatinolytic activity of pro-MMP-9 was determined by densitometry of the 97 KDa white band on a blue background using Image J(n=4 per treatment). […]

[7] = test system: mouse model of hind limb ischemia; test: Laser Doppler perfusion imaging (LDPI) of perfusion recovery; type: in vivo, A/J mice; details: peptide-loaded microgels, 14 day time course
Procedure: as §2, with “As controls, femoral artery ligation surgery was performed on animals without any microgels or peptide treatment or with peptide in PBS injections into the subcutaneous tissue adjacent to femoral artery ligations. The left hind limb (unoperated) was also used as a surgical control.” left out
LDPI: LDPI was performed on the footpad region of the hind limb of the mice using a Periscan PIM II device. […] The perfusion ratio was calculated by normalizing the average perfusion value of the ischemic footpad (right) to the average perfusion value of the control, un-operated footpad (left) using Image J (NIH).

[8] = test system: mouse model of hind limb ischemia; test: Histological analysis of inflammation (H&E, F4/80 macrophage infiltration); type: in vivo, A/J mice; details: multiple 1 mL microgel injections
Text: Mouse model of hind limb ischemia: Wild type A/J mice were used to develop a model of PAD as described previously, by ligating the femoral artery and vein at one ligation below the epigastric artery and a second ligation around the artery and vein at a distal location just proximal to the deep femoral branch. The femoral artery and vein were then cut between these two sutures. […] In order to control the hydrogel size considering the possibility that the hydrogel size may change peptide release and therefore inflammatory responses a single, 10 mL bulk injection or ten, 1 mL injections of peptide-loaded polymer were made into the thigh muscle adjacent to the femoral artery ligations. The surgical incision was then closed with non-degradable sutures. […]
Histological analysis of angiogenesis and inflammation: After sacrificing mice, ischemic muscle samples were prepared for histological analysis as described elsewhere. […] Immunohistochemical (IHC) staining to identify activated inflammatory cells by F4/80 expression was quantified by normalizing the total F4/80 positive area (indicated by brown staining) to the total cell number (determined by hema-toxylin nuclear staining) using Image J.

RAW 264.7 macrophages [9] = test: Gene expression by quantitative RT-PCR; type: cell-based, mouse; details: 75 mg/mL peptide, 72 h
Procedure: as §1
Gene expression: mAECs or RAW 264.7 cells were seeded at a density of 3×10^5 cells/mL on TCPS with 75 mg/mL of Ac-SDKP, C16, or the combination of C16 and Ac-SDKP peptides. After 3 days, RNA was extracted from […] using Trizol reagent and RNA easy columns. After dissolving RNA in RNase-free water, the concentration and purity of isolated RNA was measured using TECAN plate reader Nanoquant (company info). […] 50 ng/well cDNA was then amplified using SYBR green Supermix and fluorescence signal was measured on a BioRAD real time PCR machine. […] Expression was calculated using the […] and normalized to GAPDH expression (n=8).

[10] = test system: mouse model of hind limb ischemia; test: Vybrant phagocytosis assay in harvested microgels and surrounding tissue; type: in vivo, A/J mice; details: peptide-loaded microgels, day 14
Text: Mouse model of hind limb ischemia: Wild type A/J mice were used to develop a model of PAD as described previously, by ligating the femoral artery and vein at one ligation below the epigastric artery and a second ligation around the artery and vein at a distal location just proximal to the deep femoral branch. The femoral artery and vein were then cut between these two sutures. […] In order to control the hydrogel size considering the possibility that the hydrogel size may change peptide release and therefore inflammatory responses a single, 10 mL bulk injection or ten, 1 mL injections of peptide-loaded polymer were made into the thigh muscle adjacent to the femoral artery ligations. The surgical incision was then closed with non-degradable sutures. As controls, femoral artery ligation surgery was performed on animals without any microgels or peptide treatment or with peptide in PBS injections into the subcutaneous tissue adjacent to femoral artery ligations. […]
A phagocytosis assay was performed in harvested microgels using Vybrant Phagocytosis Assay kit according to the manufacturer's protocol. Green fluorescence from internalized Escherichia coli particles in excised microgels and surrounding tissue was visualized through confocal imaging. The intensity of green fluorescence in each image was quantified using Image J (n=6 images per mouse, n=6 mice per treatment).

RAW 264.7 macrophages [11] = test: TNF-a ELISA of cell culture supernatant; type: cell-based, mouse; details: RAW 264.7, 72 h, peptides 75 mg/mL, TNF-a antibodies 5 mg/mL
Procedure: as §1
ELISA: To verify TNF-a inhibition with antibodies, an ELISA was performed using Mouse TNF-a ELISA MAXTM Deluxe (Biolegend) according to the supplier's protocol. Secreted TNF-a in RAW 264.7 cell culture supernatant was measured by reading absorbance at 450 nm using a TECAN M1000 plate reader and quantified against a standard curve (n=4 per treatment).

Procedure for iPSC-CMs: The encapsulation study was performed by mixing cells with polymer solution and gelled at 37° C. After two weeks, live cells were stained by calcein AM (green fluorescence) (g).

Compound	tubulogenesis (tube formation) [1]	MMP-9 activity in endothelial cells (zymography) [2]	increase in the total area of vessels (Doppler OCT) compared to Ac-SDKP or no treatment ([3]; implantable scaffolds, day 1 to day 13)	vessel morphology (speckle-variance OCT volume scans of calf muscle) [3]	angiogenesis compared to PBS alone ([4]; PBS injections of peptide, no microgel)	angiogenesis / perfusion capacity increase vs. microgels without peptides ([4]; microgel-mediated delivery, day 14) [fold]	TIMP-1 expression [5]	TNF-a expression in comparison to no peptide treatment [5]	MMP-9 activity compared to macrophages without peptide treatment (RAW 264.7 macrophages [6])	higher perfusion compared to microgels without peptides (LDPI) ([7]; ischemic/control foot ratio) [%]	macrophage infiltration, increase compared to no peptide treatment ([8]; day 14)	TNF-a expression in comparison to no peptide treatment (RAW 264.7 macrophages [9])	phagocytic activity in tissue around microgels [10]	angiogenesis in comparison to microgels without peptide loading ([4]; peptide-loaded microgels, day 14)	MMP-9 expression, decrease compared to no peptide treatment ([5]; normalized to GAPDH)	perfusion recovery (LDPI) [7]	inflammatory / macrophage infiltration in muscle tissue ([8]; day 14, vs no peptide)	secreted TNF-a (ELISA) (RAW 264.7 macrophages [11])	viability of encapsulated iPSC-CMs (calcein AM) (iPSC-CMs)
CCN(CC)Cc1cc(C)c(N(Cc2ccccc2)S(=O)(=O)c2ccc(OC)cc2)c(C(=O)NO)c1 [MMP-9 inhibitor, reference compound]	significantly reduced	attenuation of MMP-9 activity	–	–	–	–	–	–	–	–	–	–	–	–	–	–	–	–	–
KAFDITYVRLKF [C16, pro-angiogenic peptide]	augmented MMP-9 activity and tubulogenesis	augmented MMP-9 activity and tubulogenesis	greater than two fold	many vessels with a high degree of branching	Slightly increased angiogenesis	~1.5	decreased TIMP-1 expression significantly	increased TNF-a expression	significantly higher levels of MMP-9 activity	29	two fold	increased TNF-a expression	higher phagocytic activity than no peptide controls	–	–	–	–	–	–
N-acetyl-Ser-Asp-Lys-Pro (Ac-SDKP) [anti-inflammatory peptide]	diminished	diminished	–	few blood vessels with limited branching	–	–	–	decreased TNF-a expression	–	–	–	decreased TNF-a expression	reduced both responses	reduced both responses	over 50%	did not increase perfusion	further decreased inflammatory infiltration	secreted the least amounts of TNF-a	–
polyethylene glycol-co-poly-8-caprolactone [PEG-PCL]	–	–	–	–	–	–	–	–	–	–	–	–	–	–	–	–	–	–	maintained their viability
